The source of these data is patent publication US12435060B2, “Acylamino bridged heterocyclic compound, and composition and application thereof” (BEIJING SCITECH-MQ PHARMACEUTICALS LIMITED, priority 2019, dated 2025).

pIC50: −log10 of the molar value.

What is called pIC50 is the negative decadic logarithm of the IC50, by convention in mol/L. Higher therefore signals a low IC50.

For the experiment, the system named is HT29 cells. The experiment is described as follows: Inhibition of cell necrosis (CCK8 method), induced programmed necrosis of HT29 cells. The note with it: Homo sapiens, HT-29; rescue from necrosis induced by TNF-α 20 ng/mL, AT-406 1 μM, Z-VAD-FMK 20 μM; 16-20 hours; CCK-8, OD 450 nm. The class given is cell-based. The method in brief:
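HT29 cells in McCOY's 5A with 10% FBS were pre-treated for 30 min with compound (9 fourfold steps, 25000 to 0.38 nM final, 0.25% DMSO). Necrosis was then induced with TNF-α 20 ng/mL, AT-406 1 μM and Z-VAD-FMK 20 μM for 16-20 h. Viability was read by CCK-8 OD450, normalized between uninduced and induced wells, and IC50 was curve-fitted.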
(In general: Formazan colour is commonly taken as a measure of viable cells.)
The molecule `CC(C)(O)CCCCOc1ccc(C(F)(F)F)c(-c2ccnc(NC(=O)c3nnc(CC4CCCCC4)[nH]3)c2)c1` [Example 271, 5-(cyclohexylmethyl)-N-(4-(5-((5-hydroxyl-5-methylhexyl)oxy)-2-(trifluoromethyl)phenyl)pyridin-2-yl)-4H-1,2,4-triazole-3-carboxamide] showed a pIC50 of no less than 7.00.
As for `Cc1ccc(OCCCC(C)(C)O)cc1-c1ccnc(NC(=O)c2nnc(Cc3ccc(F)cc3F)[nH]2)c1` [Example 201, 5-(2,4-difluorobenzyl)-N-(4-(5-((4-hydroxy-4-methylpentyl)oxy)-2-methylphenyl)pyridin-2-yl)-4H-1,2,4-triazole-3-carboxamide], the pIC50 was no less than 7.00.
Turning to `Cc1ccc(C(=O)CC2CCOCC2)cc1-c1ccnc(NC(=O)c2nnc(CC3CCCC3)[nH]2)c1` [Example 486, 5-(cyclopentylmethyl)-N-(4-(2-methyl-5-(2-(tetrahydro-2H-pyran-4-yl)acetyl)phenyl)pyridin-2-yl)-4H-1,2,4-triazole-3-carboxamide], the negative logarithm of the IC50 (pIC50) is no less than 7.00.
Turning to `CCC(O)(CC)CCCOc1ccc(C)c(-c2cc(NC(=O)c3nnc(CC4CCCCC4)[nH]3)ncc2F)c1` [Example 243, 5-(cyclohexylmethyl)-N-(4-(5-((4-ethyl-4-hydroxyhexyl)oxy)-2-methylphenyl)-5-fluoropyridin-2-yl)-4H-1,2,4-triazole-3-carboxamide], the negative logarithm of the IC50 (pIC50) is no less than 7.00.
The result for `COc1ccc(C)cc1-c1ccnc(NC(=O)c2nnc(Cc3ccccc3)[nH]2)c1` [Example 16, 5-benzyl-N-(4-(2-methoxy-5-methylphenyl)pyridin-2-yl)-4H-1,2,4-triazole-3-carboxamide] reads 5.00 to 6.00.
The result for `CC(C)(C)OCCOc1ccc(C(F)(F)F)c(-c2ccnc(NC(=O)c3nnc(Cc4ccccc4F)[nH]3)c2)c1` [Example 292, 5-(2-fluorobenzyl)-N-(4-(5-(2-(tert-butoxy)ethoxy)-2-(trifluoromethyl)phenyl)pyridin-2-yl)-4H-1,2,4-triazole-3-carboxamide] reads no less than 7.00; that for `CC(C)(O)CCCOc1ccc(Cl)c(-c2ccnc(NC(=O)c3nnc(CC4CCCCC4)[nH]3)c2)c1` [Example 357, N-(4-(2-chloro-5-((4-hydroxy-4-methylpentyl)oxy)phenyl)pyridin-2-yl)-5-(cyclohexylmethyl)-4H-1,2,4-triazole-3-carboxamide], no less than 7.00.
For `Cc1ccc(OC2CCOCC2)cc1-c1ccnc(NC(=O)c2nnc(Cc3ccccc3)[nH]2)c1` [Example 65, 5-benzyl-N-(4-(2-methyl-5-((tetrahydro-2H-pyran-4-yl)oxy)phenyl)pyridin-2-yl)-4H-1,2,4-triazole-3-carboxamide], the pIC50 was no less than 7.00.
`Cc1cnc(NC(=O)c2nnc(CC3CCCCC3)[nH]2)cc1-c1cc(OCC2CCOCC2)ccc1F` [Example 332, 5-(cyclohexylmethyl)-N-(4-(2-fluoro-5-((tetrahydro-2H-pyran-4-yl)methoxy)phenyl)-5-methylpyridin-2-yl)-4H-1,2,4-triazole-3-carboxamide]: the negative-log IC50 (pIC50) was 5.00 to 6.00.
The result for `CC(C)(O)CCCOc1ccc(Cl)c(-c2ccnc(NC(=O)c3nnc(Cc4cccc(C(F)(F)F)c4F)[nH]3)c2)c1` [Example 346, N-(4-(2-chloro-5-((4-hydroxy-4-methylpentyl)oxy)phenyl)pyridin-2-yl)-5-(2-fluoro-3-(trifluoromethyl)benzyl)-4H-1,2,4-triazole-3-carboxamide] reads 6.00 to 7.00.
With `Cc1cnc(NC(=O)c2nnc(Cc3ccccc3F)[nH]2)cc1-c1cc(OCC2CCOCC2)ccc1Cl` [Example 426, N-(4-(2-chloro-5-((tetrahydro-2H-pyran-4-yl)methoxy)phenyl)-5-methylpyridin-2-yl)-5-(2-fluorobenzyl)-4H-1,2,4-triazole-3-carboxamide], the pIC50 was 6.00 to 7.00.
The result for `O=C(Nc1cc(-c2cc(OCC3CCOCC3)ccc2Cl)c(F)cn1)c1nnc(Cc2ccccc2F)[nH]1` [Example 422, N-(4-(2-chloro-5-((tetrahydro-2H-pyran-4-yl)methoxy)phenyl)-5-fluoropyridin-2-yl)-5-(2-fluorobenzyl)-4H-1,2,4-triazole-3-carboxamide] reads no less than 7.00; that for `COCCCOc1ccc(C)c(-c2ccnc(NC(=O)c3nnc(Cc4ccccc4)[nH]3)c2)c1` [Example 141, 5-benzyl-N-(4-(5-(3-methoxypropoxy)-2-methylphenyl)pyridin-2-yl)-4H-1,2,4-triazole-3-carboxamide], no less than 7.00; that for `CCC(O)(CC)CCCOc1ccc(F)c(-c2ccnc(NC(=O)c3nnc(Cc4ccccc4F)[nH]3)c2)c1` [Example 314, N-(4-(5-((4-ethyl-4-hydroxyhexyl)oxy)-2-fluorophenyl)pyridin-2-yl)-5-(2-fluorobenzyl)-4H-1,2,4-triazole-3-carboxamide], 6.00 to 7.00.
Regarding `Cc1ccc(OCCN2CCCCC2)cc1-c1ccnc(NC(=O)c2nnc(Cc3cc(F)cc(F)c3)[nH]2)c1` [Example 232, 5-(3,5-difluorobenzyl)-N-(4-(2-methyl-5-(2-(piperidin-1-yl)ethoxy)phenyl)pyridin-2-yl)-4H-1,2,4-triazole-3-carboxamide], the negative logarithm of the IC50 (pIC50) was 6.00 to 7.00.
`Cc1ccc(OCCC2CCOCC2)cc1-c1cc(NC(=O)c2nnc(Cc3ccccc3)[nH]2)ncn1` [Example 445, 5-benzyl-N-(6-(2-methyl-5-(2-(tetrahydro-2H-pyran-4-yl)ethoxy)phenyl)pyrimidin-4-yl)-4H-1,2,4-triazole-3-carboxamide] gave a pIC50 of no less than 7.00.
Molecule `O=C(Nc1cc(-c2cc(OCCCCO)ccc2Cl)ccn1)c1nnc(Cc2ccccc2F)[nH]1` [Example 372, 5-(2-fluorobenzyl)-N-(4-(2-chloro-5-(4-hydroxybutoxy)phenyl)pyridin-2-yl)-4H-1,2,4-triazole-3-carboxamide] gave a negative-log IC50 (pIC50) of no less than 7.00.
The result for `Cc1ccc(OCC2CCOCC2)cc1-c1ccnc(NC(=O)c2nnc(CC3CCCC3)[nH]2)c1` [Example 79, 5-(cyclopentylmethyl)-N-(4-(2-methyl-5-((tetrahydro-2H-pyran-4-yl)methoxy)phenyl)pyridin-2-yl)-4H-1,2,4-triazole-3-carboxamide] reads no less than 7.00; that for `CCC(O)(CC)CCCOc1ccc(Cl)c(-c2cc(NC(=O)c3nnc(Cc4ccccc4F)[nH]3)ncc2Cl)c1` [Example 417, N-(5-chloro-4-(2-chloro-5-((4-ethyl-4-hydroxyhexyl)oxy)phenyl)pyridin-2-yl)-5-(2-fluorobenzyl)-4H-1,2,4-triazole-3-carboxamide], 6.00 to 7.00; that for `CC(C)(O)CCCCOc1ccc(Cl)c(-c2cc(NC(=O)c3nnc(CC4CCCCC4)[nH]3)ncc2F)c1` [Example 502, N-(4-(2-chloro-5-((5-hydroxyl-5-methylhexyl)oxy)phenyl)-5-fluoropyridin-2-yl)-5-(cyclohexylmethyl)-4H-1,2,4-triazole-3-carboxamide], no less than 7.00.
Consider `Cc1ccc(OCCCC(C)C#N)cc1-c1ccnc(NC(=O)c2nnc(Cc3ccccc3)[nH]2)c1` (centres unmarked) [Example 90, 5-benzyl-N-(4-(5-((4-cyanopentyl)oxy)-2-methylphenyl)pyridin-2-yl)-4H-1,2,4-triazole-3-carboxamide], for which the negative-log IC50 (pIC50) is no less than 7.00.
`Cc1ccc(OCCCC(C)(C)O)cc1-c1ccnc(NC(=O)c2nnc(CC3CCCCCC3)[nH]2)c1` [Example 222, 5-(cycloheptylmethyl)-N-(4-(5-((4-hydroxy-4-methylpentyl)oxy)-2-methylphenyl)pyridin-2-yl)-4H-1,2,4-triazole-3-carboxamide] had a negative-log IC50 (pIC50) of no less than 7.00.
Then `Cc1ccc(C(=O)NCCC(C)(C)O)cc1-c1ccnc(NC(=O)c2nnc(Cc3ccccc3)[nH]2)c1` [Example 487, 5-benzyl-N-(4-(5-((3-hydroxyl-3-methylbutyl)carbamoyl)-2-methylphenyl)pyridin-2-yl)-4H-1,2,4-triazole-3-carboxamide], with 6.00 to 7.00.
The result for `Cc1ccc(OCCCS(C)(=O)=O)cc1-c1ccnc(NC(=O)c2nnc(Cc3ccccc3)[nH]2)c1` [Example 73, 5-benzyl-N-(4-(2-methyl-5-(3-(methylsulfonyl)propoxy)phenyl)pyridin-2-yl)-4H-1,2,4-triazole-3-carboxamide] reads no less than 7.00; that for `CC(C)(O)CCCOc1ccc(Cl)c(-c2ccnc(NC(=O)c3nnc(Cc4cc(Cl)ccc4F)[nH]3)c2)c1` [Example 340, 5-(5-chloro-2-fluorobenzyl)-N-(4-(2-chloro-5-((4-hydroxy-4-methylpentyl)oxy)phenyl)pyridin-2-yl)-4H-1,2,4-triazole-3-carboxamide], 6.00 to 7.00; that for `Cc1ccc(OCCCC(C)(C)O)cc1-c1ccnc(NC(=O)c2nnc(Cc3cccc(F)c3F)[nH]2)c1` [Example 202, 5-(2,3-difluorobenzyl)-N-(4-(5-((4-hydroxy-4-methylpentyl)oxy)-2-methylphenyl)pyridin-2-yl)-4H-1,2,4-triazole-3-carboxamide], no less than 7.00.
Then `O=C(Nc1cc(-c2cc(OCCC3CCOCC3)ccc2F)c(Cl)cn1)c1nnc(CC2CCCCC2)[nH]1` [Example 334, N-(5-chloro-4-(2-fluoro-5-(2-(tetrahydro-2H-pyran-4-yl)ethoxy)phenyl)pyridin-2-yl)-5-(cyclohexylmethyl)-4H-1,2,4-triazole-3-carboxamide], with 6.00 to 7.00; and `Cc1ccc(OCCN2CCCC2=O)cc1-c1ccnc(NC(=O)c2nnc(Cc3ccccc3)[nH]2)c1` [Example 71, 5-benzyl-N-(4-(2-methyl-5-(2-(2-oxopyrrolidin-1-yl)ethoxy)phenyl)pyridin-2-yl)-4H-1,2,4-triazole-3-carboxamide], with no less than 7.00.
On to `Cc1ccc(OCCO)cc1-c1ccnc(NC(=O)c2nnc(Cc3ccccc3)[nH]2)c1` [Example 125, 5-benzyl-N-(4-(5-(2-hydroxyethoxy)-2-methylphenyl)pyridin-2-yl)-4H-1,2,4-triazole-3-carboxamide], for which the pIC50 is 6.00 to 7.00.
